According to patent US20240041042A1, “1-(PYRIDYL)-5-AZINYLPYRAZOLE DERIVATIVES, AND THEIR USE FOR CONTROL OF UNDESIRED PLANT GROWTH” (Bayer Aktiengesellschaft, priority 2020, published 2024):
Where two headings read alike, the source gives them in different places. One block for each molecule: values may come before it.

How the values were obtained:
Assay type in all cases: in vivo
[1] = system: Triticum aestivum (TRZAS); conditions: crop plant compatibility, effect vs untreated controls
In short: (§1)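 One-leaf-stage crops (2–3 wk post-sowing, sandy loam, greenhouse) sprayed on green parts; 0.5% additive, 600 l/ha water. Rated by eye ~3 wk later, % vs untreated; suffixes a/b/c mark different dosages.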

Zea mays (ZEAMX) [2] = conditions: for Post-emergence action against ZEAMX in % (crop plant compatibility): 20 g/ha, effect in comparison to untreated controls
In short: as §1

Oryza sativa (ORYSA) [3] = conditions: crop plant compatibility
In short: as §1

[4] = system: Triticum aestivum (TRZAS); conditions: pre-emergence, crop plant compatibility, in comparison to untreated controls
In short: (§2)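 Crop injury rated visually in percent against untreated plants roughly 3 weeks after treatment (0% no effect, 100% plants dead). Compounds, as WP or EC with 0.5% additive in 600 l/ha water, were applied to the covering soil right after sowing; greenhouse growth. Suffixes a, b, c denote different dosages.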

Zea mays (ZEAMX) [5] = conditions: pre-emergence, crop plant compatibility, in comparison to untreated controls
In short: as §2

Oryza sativa (ORYSA) [6] = conditions: pre-emergence, crop plant compatibility, in comparison to untreated controls
In short: as §2

Brassica napus (BRSNW) = conditions: 80 g/ha, crop plant compatibility, in comparison to untreated controls
In short: as §2

Glycine max (GLXMA) = experiment: Post-emergence crop plant compatibility, GLXMA; conditions: post-emergence, 20 g/ha, effect in comparison to untreated controls
Experimental: Seeds of monocotyledonous and dicotyledonous weeds and crop plants are placed in sandy loam in plastic or organic planting pots, covered with soil and cultivated in a greenhouse under controlled growth conditions. 2 to 3 weeks after sowing, the test plants are treated at the one-leaf stage. The compounds of the invention, formulated in the form of wettable powders (WP) or as emulsion concentrates (EC), are then sprayed onto the green parts of the plants as aqueous suspension or emulsion with addition of 0.5% additive at a water application rate of 600 l/ha (converted). After the test plants have been kept in the greenhouse under optimum growth conditions for about 3 weeks, the activity of the preparations is rated visually in comparison to untreated controls. For example, 100% activity=the plants have died, 0% activity=like control plants.
The observed effects on selected crop plants are reported here in comparison to the untreated controls (values in %). The appendices “a”, “b” and “c” give differentiation by dosage used with otherwise the same crop plants tested.

[7] = system: Abutilon theophrasti (ABUTH); experiment: Post-emergence herbicidal action against ABUTH; conditions: 80 g/ha, visual rating about 3 weeks after treatment vs untreated controls (100% = plants have died, 0% = like control plants)
In short: (§3)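 Values are percent visual activity (0% like control, 100% plants dead) after about 3 weeks in the greenhouse. Treatment: post-emergence spray at one-leaf stage, 600 l/ha spray volume, 0.5% additive, doses 320 g/ha or lower.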

[8] = system: Amaranthus retroflexus (AMARE); experiment: Post-emergence herbicidal action against AMARE; conditions: 80 g/ha, visual rating about 3 weeks after treatment vs untreated controls (100% = plants have died, 0% = like control plants)
In short: as §3

[9] = system: Digitaria sanguinalis (DIGSA); experiment: Pre-emergence herbicidal action against DIGSA
In short: (§4)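 Application rates ran to 320 g/ha or lower, with several dosages tested on the same weeds. The compound, as wettable powder or emulsion concentrate, is sprayed pre-emergence onto soil over sown seeds; greenhouse growth follows, and effect is rated visually after roughly 3 weeks.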

[10] = system: Matricaria inodora (MATIN); experiment: Post-emergence herbicidal action against MATIN; conditions: dosage 80 g/ha
In short: as §3

[11] = system: Echinochloa crus-galli (ECHCG); experiment: Pre-emergence herbicidal action against ECHCG; conditions: dosage 320 g/ha
In short: as §4

Lolium rigidum (LOLRI) [12] = experiment: Pre-emergence herbicidal action against LOLRI; conditions: dosage 320 g/ha
In short: as §4

Lolium rigidum (LOLRI) [13] = experiment: Post-emergence herbicidal action against LOLRI; conditions: dosage 80 g/ha
In short: as §3

[14] = system: Echinochloa crus-galli (ECHCG); experiment: Post-emergence herbicidal action against ECHCG; conditions: dosage 80 g/ha
In short: as §3

[15] = system: Verconica persica (VERPE); experiment: Pre-emergence herbicidal action against VERPE; conditions: dosage 320 g/ha
In short: as §4

Setaria viridis (SETVI) [16] = experiment: Pre-emergence herbicidal action against SETVI; conditions: dosage 320 g/ha
In short: as §4

[17] = system: Alopecurus myosuroides (ALOMY); experiment: Pre-emergence herbicidal action against ALOMY; conditions: 320 g/ha; scored visually after about 3 weeks; 100% = plants have died
In short: as §4

[18] = system: Amaranthus retroflexus (AMARE); experiment: Pre-emergence herbicidal action against AMARE; conditions: 320 g/ha, visual scoring after about 3 weeks vs untreated controls
In short: as §4

Viola tricolor (VIOTR) = experiment: Pre-emergence herbicidal action against VIOTR
In short: as §4

[19] = system: Matricaria inodora (MATIN); experiment: Pre-emergence herbicidal action against MATIN; conditions: dosage 320 g/ha
In short: as §4

[20] = system: Polygonum convolvulus (POLCO); experiment: Pre-emergence herbicidal action against POLCO; conditions: dosage 320 g/ha
In short: as §4

Setaria viridis (SETVI) [21] = experiment: Post-emergence herbicidal action against SETVI; conditions: dosage 80 g/ha
In short: as §3

[22] = 20 g/ha, effect vs untreated controls
[23] = 80 g/ha, effect in comparison to untreated controls

Post-emergence action against TRZAS in % ([1]; 20 g/ha): 0% | Post-emergence action against TRZAS in % ([1]; 80 g/ha): 10% | Post-emergence action against ZEAMX in % (crop plant compatibility) (Zea mays (ZEAMX) [2]): 0% | Post-emergence action against ZEAMX in % (Zea mays (ZEAMX) [2]; crop plant compatibility, 80 g/ha, effect vs untreated controls): 10% | Post-emergence action against ORYSA in % (Oryza sativa (ORYSA) [3]; [22]): 0% | Post-emergence action against ORYSA in % (Oryza sativa (ORYSA) [3]; [23]): 10% | Pre-emergence action against TRZAS in % ([4]; 80 g/ha): 0% | Pre-emergence action against TRZAS in % ([4]; 320 g/ha): 0% | Pre-emergence action against ZEAMX in % (Zea mays (ZEAMX) [5]; 80 g/ha): 0% | Pre-emergence action against ZEAMX in % (Zea mays (ZEAMX) [5]; 320 g/ha): 0% | Pre-emergence action against ORYSA in % (Oryza sativa (ORYSA) [6]; 80 g/ha): 10% | Pre-emergence action against ORYSA in % (Oryza sativa (ORYSA) [6]; 320 g/ha): 20% | Pre-emergence action against BRSNW in % (Brassica napus (BRSNW)): 10% | Post-emergence action against GLXMA in % (Glycine max (GLXMA)): 10%
Compound: COC(=O)COc1nn(-c2ncccc2F)c(-c2cncc(F)c2)c1Br [Example I-49]

Post-emergence action against TRZAS in % ([1]; 20 g/ha): 20% | Post-emergence action against ZEAMX in % (crop plant compatibility) (Zea mays (ZEAMX) [2]): 10% | Post-emergence action against ORYSA in % (Oryza sativa (ORYSA) [3]; [22]): 0% | Post-emergence action against ORYSA in % (Oryza sativa (ORYSA) [3]; [23]): 0% | Pre-emergence action against TRZAS in % ([4]; 80 g/ha): 20% | Pre-emergence action against ORYSA in % (Oryza sativa (ORYSA) [6]; 80 g/ha): 20% | Post-emergence action against GLXMA in % (Glycine max (GLXMA)): 20%
Compound: O=C(O)CSc1nn(-c2ccccn2)c(-c2cncc(Cl)c2)c1Br [Example I-126]
Post-emergence action against ABUTH in % [7]: 80% | Post-emergence action against AMARE in % [8]: 80% | Pre-emergence action against DIGSA in % ([9]; 80 g/ha, visual scoring after about 3 weeks vs untreated controls): 90% | Pre-emergence action against DIGSA in % ([9]; dosage 320 g/ha): 100% | Post-emergence action against MATIN in % [10]: 80% | Pre-emergence action against ECHCG in % [11]: 90% | Pre-emergence action against LOLRI in % (Lolium rigidum (LOLRI) [12]): 100% | Post-emergence action against LOLRI in % (Lolium rigidum (LOLRI) [13]): 80% | Post-emergence action against ECHCG in % [14]: 80% | Pre-emergence action against VERPE in % [15]: 80% | Pre-emergence action against SETVI in % (Setaria viridis (SETVI) [16]): 90% | Pre-emergence action against ALOMY [17]: 80% | Pre-emergence action against AMARE in % [18]: 100% | Pre-emergence action against VIOTR in % (Viola tricolor (VIOTR); 320 g/ha, Viola tricolor): 100% | Pre-emergence action against VIOTR in % (Viola tricolor (VIOTR); dosage 80 g/ha): 100% | Pre-emergence action against MATIN in % [19]: 90% | Pre-emergence action against POLCO in % [20]: 90% | Post-emergence action against SETVI in % (Setaria viridis (SETVI) [21]): 80%
